{"source": "patent US20240299386A1", "about": "“Novel imidazole derivatives having protein kinase inhibitory activity and uses thereof” (INDUSTRY-UNIVERSITY COOPERATION FOUNDATION HANYANG …, priority 2021, published 2024)", "biological_target": "JNK3 (Homo sapiens, UniProt P53779)", "sequence (P53779 whole entry, species assumed)": "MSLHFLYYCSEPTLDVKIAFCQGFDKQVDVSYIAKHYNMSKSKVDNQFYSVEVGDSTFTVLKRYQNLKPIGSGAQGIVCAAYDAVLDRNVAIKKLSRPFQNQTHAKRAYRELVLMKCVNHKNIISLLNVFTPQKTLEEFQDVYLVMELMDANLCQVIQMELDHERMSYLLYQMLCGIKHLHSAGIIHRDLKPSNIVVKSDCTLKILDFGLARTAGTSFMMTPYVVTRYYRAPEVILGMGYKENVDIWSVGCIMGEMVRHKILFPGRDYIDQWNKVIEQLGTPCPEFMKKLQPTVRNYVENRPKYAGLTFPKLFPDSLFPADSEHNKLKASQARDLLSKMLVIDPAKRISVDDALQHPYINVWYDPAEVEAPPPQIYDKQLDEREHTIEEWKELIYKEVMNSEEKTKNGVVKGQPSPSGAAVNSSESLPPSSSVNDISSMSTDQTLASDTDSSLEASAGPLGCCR", "experiment": "Measurement of JNK3 enzyme activity", "format": "biochemical", "description": "Experimental Example 1. Measurement of JNK3 Enzyme Activity"}
{"molecule": "NC(=O)C1Cc2nc(-c3ccc(Cl)c(Cl)c3)n(-c3ccnc(N[C@@H]4CCN(C(=O)C5CC5)C4)n3)c2C1", "note": "(stereo partly drawn) [Compound 21b, 1-(2-(((R)-1-(cyclopropanecarbonyl)pyrrolidine-3-yl)amino)pyrimidin-4-yl)-2-(3,4-dichlorophenyl)-1,4,5,6-tetracyclopenta[d]imidazol-5-carboxamide]", "values": [{"measurement": "IC50", "setting": "Table 2", "result": "< 0.03", "unit": "µM"}]}
{"molecule": "CCOC(=O)C1Cc2nc(-c3ccc4ccccc4c3)n(-c3ccnc(N[C@@H]4CCN(C(=O)C5CC5)C4)n3)c2C1", "note": "(stereo partly drawn) [Compound 17c, ethyl 1-(2-(((R)-1-(cyclopropanecarbonyl)pyrrolidine-3-yl)amino)pyrimidin-4-yl)-2-(naphthalen-2-yl)-1,4,5,6-tetracyclopenta[d]imidazol-5-carboxylate]", "values": [{"measurement": "IC50", "setting": "Table 3", "result": "< 0.03", "unit": "µM"}]}
{"molecule": "CCOC(=O)C1Cc2nc(-c3ccc4c(c3)CCO4)n(-c3ccnc(N[C@H]4CCN(C(=O)C5CC5)C4)n3)c2C1", "note": "(stereo partly drawn) [Compound 16e, ethyl 1-(2-(((S)-1-(cyclopropanecarbonyl)pyrrolidine-3-yl)amino)pyrimidin-4-yl)-2-(2,3-dihydrobenzofuran-5-yl)-1,4,5,6-tetracyclopenta[d]imidazol-5-carboxylate]", "values": [{"measurement": "IC50", "setting": "Table 5", "result": "> 1", "unit": "µM"}]}
{"molecule": "NC(=O)C1Cc2nc(-c3ccc4ccccc4c3)n(-c3ccnc(N[C@H]4CCN(C(=O)C5CC5)C4)n3)c2C1", "note": "(stereo partly drawn) [Compound 20c, 1-(2-(((S)-1-(cyclopropanecarbonyl)pyrrolidine-3-yl)amino)pyrimidin-4-yl)-2-(naphthalen-2-yl)-1,4,5,6-tetracyclopenta[d]imidazol-5-carboxamide]", "values": [{"measurement": "IC50", "setting": "Table 3", "result": "< 0.03", "unit": "µM"}]}
{"molecule": "NC(=O)C1Cc2nc(-c3ccc(Cl)c(Cl)c3)n(-c3ccnc(N[C@@H]4CCCN(C(=O)C5CC5)C4)n3)c2C1", "note": "(stereo partly drawn) [Compound 23b, 1-(2-(((R)-1-(cyclopropanecarbonyl)piperidin-3-yl)amino)pyrimidin-4-yl)-2-(3,4-dichlorophenyl)-1,4,5,6-tetracyclopenta[d]imidazol-5-carboxamide]", "values": [{"measurement": "IC50", "setting": "Table 2", "result": "< 0.03", "unit": "µM"}]}
{"molecule": "CCOC(=O)C1Cc2nc(-c3ccc(F)c(C(F)(F)F)c3)n(-c3ccnc(N[C@H]4CCN(C(=O)C5CC5)C4)n3)c2C1", "note": "(stereo partly drawn) [Compound 16a, ethyl 1-(2-(((S)-1-(cyclopropanecarbonyl)pyrrolidine-3-yl)amino)pyrimidin-4-yl)-2-(4-fluoro-3-(trifluoromethyl)phenyl)-1,4,5,6-tetracyclopenta[d]imidazol-5-carboxylate]", "values": [{"measurement": "IC50", "setting": "Table 1", "result": "> 1", "unit": "µM"}]}
{"molecule": "NC(=O)C1Cc2nc(-c3ccc(F)c(C(F)(F)F)c3)n(-c3ccnc(N[C@@H]4CCN(C(=O)C5CC5)C4)n3)c2C1", "note": "(stereo partly drawn) [Compound 21a, 1-(2-(((R)-1-(cyclopropanecarbonyl)pyrrolidine-3-yl)amino)pyrimidin-4-yl)-2-(4-fluoro-3-(trifluoromethyl)phenyl)-1,4,5,6-tetracyclopenta[d]imidazol-5-carboxamide]", "values": [{"measurement": "IC50", "setting": "Table 1", "result": "> 1", "unit": "µM"}]}
{"molecule": "CCOC(=O)C1Cc2nc(-c3ccc(F)c(C(F)(F)F)c3)n(-c3ccnc(N[C@H]4CCCN(C(=O)C5CC5)C4)n3)c2C1", "note": "(stereo partly drawn) [Compound 18a, ethyl 1-(2-(((S)-1-(cyclopropanecarbonyl)piperidin-3-yl)amino)pyrimidin-4-yl)-2-(4-fluoro-3-(trifluoromethyl)phenyl)-1,4,5,6-tetracyclopenta[d]imidazol-5-carboxylate]", "values": [{"measurement": "IC50", "setting": "Table 1", "result": "< 0.03", "unit": "µM"}]}
{"molecule": "CNC(=O)C1Cc2nc(-c3ccc4ccccc4c3)n(-c3ccnc(N[C@H]4CCCN(C(=O)C5CC5)C4)n3)c2C1", "note": "(stereo partly drawn) [Compound 26c, 1-(2-(((S)-1-(cyclopropanecarbonyl)piperidin-3-yl)amino)pyrimidin-4-yl)-2-(naphthalen-2-yl)-N-methyl-1,4,5,6-tetracyclopenta[d]imidazol-5-carboxamide]", "values": [{"measurement": "IC50", "setting": "Table 3", "result": "< 0.03", "unit": "µM"}]}
{"molecule": "CNC(=O)C1Cc2nc(-c3ccc4c(c3)OCO4)n(-c3ccnc(NC4CCN(C(=O)C5CC5)C4)n3)c2C1", "note": "(single isomer, unassigned) [Compound 24d]", "values": [{"measurement": "IC50", "setting": "Table 4", "result": "> 1", "unit": "µM"}]}
{"molecule": "CNC(=O)C1Cc2nc(-c3ccc(F)c(C(F)(F)F)c3)n(-c3ccnc(NC4CCCN(C(=O)C5CC5)C4)n3)c2C1", "note": "(single isomer, unassigned) [Compound 27a]", "values": [{"measurement": "IC50", "setting": "Table 1", "result": "> 1", "unit": "µM"}]}
{"molecule": "NC(=O)C1Cc2nc(-c3ccc(F)c(C(F)(F)F)c3)n(-c3ccnc(N[C@H]4CCN(C(=O)C5CC5)C4)n3)c2C1", "note": "(stereo partly drawn) [Compound 20a, 1-(2-(((S)-1-(cyclopropanecarbonyl)pyrrolidine-3-yl)amino)pyrimidin-4-yl)-2-(4-fluoro-3-(trifluoromethyl)phenyl)-1,4,5,6-tetracyclopenta[d]imidazol-5-carboxamide]", "values": [{"measurement": "IC50", "setting": "Table 1", "result": "> 1", "unit": "µM"}]}
{"molecule": "CCOC(=O)C1Cc2nc(-c3ccc4ccccc4c3)n(-c3ccnc(N[C@@H]4CCCN(C(=O)C5CC5)C4)n3)c2C1", "note": "(stereo partly drawn) [Compound 19c, ethyl 1-(2-(((R)-1-(cyclopropanecarbonyl)piperidin-3-yl)amino)pyrimidin-4-yl)-2-(naphthalen-2-yl)-1,4,5,6-tetracyclopenta[d]imidazol-5-carboxylate]", "values": [{"measurement": "IC50", "setting": "Table 3", "result": "< 0.03", "unit": "µM"}]}
{"molecule": "NC(=O)C1Cc2nc(-c3ccc4c(c3)OCO4)n(-c3ccnc(N[C@@H]4CCN(C(=O)C5CC5)C4)n3)c2C1", "note": "(stereo partly drawn) [Compound 21d, 2-(benzo[d][1,3]dioxol-5-yl)-1-(2-(((R)-1-(cyclopropanecarbonyl)pyrrolidine-3-yl)amino)pyrimidin-4-yl)-1,4,5,6-tetracyclopenta[d]imidazol-5-carboxamide]", "values": [{"measurement": "IC50", "setting": "Table 4", "result": "> 1", "unit": "µM"}]}
{"molecule": "CCOC(=O)C1Cc2nc(-c3ccc(Cl)c(Cl)c3)n(-c3ccnc(N[C@@H]4CCN(C(=O)C5CC5)C4)n3)c2C1", "note": "(stereo partly drawn) [Compound 17b, ethyl 1-(2-(((R)-1-(cyclopropanecarbonyl)pyrrolidine-3-yl)amino)pyrimidin-4-yl)-2-(3,4-dichlorophenyl)-1,4,5,6-tetracyclopenta[d]imidazol-5-carboxylate]", "values": [{"measurement": "IC50", "setting": "Table 2", "result": "< 0.03", "unit": "µM"}]}
{"molecule": "NC(=O)C1Cc2nc(-c3ccc(F)c(C(F)(F)F)c3)n(-c3ccnc(NC4CCCN(C(=O)C5CC5)C4)n3)c2C1", "note": "(single isomer, unassigned) [Compound 23a]", "values": [{"measurement": "IC50", "setting": "Table 1", "result": "> 1", "unit": "µM"}]}
{"molecule": "NC(=O)C1Cc2nc(-c3ccc4c(c3)OCO4)n(-c3ccnc(N[C@@H]4CCCN(C(=O)C5CC5)C4)n3)c2C1", "note": "(stereo partly drawn) [Compound 23d]", "values": [{"measurement": "IC50", "setting": "Table 4", "result": "< 0.03", "unit": "µM"}]}
{"molecule": "NC(=O)C1Cc2nc(-c3ccc4c(c3)CCO4)n(-c3ccnc(N[C@@H]4CCN(C(=O)C5CC5)C4)n3)c2C1", "note": "(stereo partly drawn) [Compound 21e, 1-(2-(((R)-1-(cyclopropanecarbonyl)pyrrolidine-3-yl)amino)pyrimidin-4-yl)-2-(2,3-dihydrobenzofuran-5-yl)-1,4,5,6-tetracyclopenta[d]imidazol-5-carboxamide]", "values": [{"measurement": "IC50", "setting": "Table 5", "result": "< 0.03", "unit": "µM"}]}
{"molecule": "CCOC(=O)C1Cc2nc(-c3ccc4c(c3)OCO4)n(-c3ccnc(N[C@H]4CCCN(C(=O)C5CC5)C4)n3)c2C1", "note": "(stereo partly drawn) [Compound 18d, ethyl 2-(benzo[d][1,3]dioxol-5-yl)-1-(2-(((S)-1-(cyclopropanecarbonyl)piperidin-3-yl)amino)pyrimidin-4-yl)-1,4,5,6-tetracyclopenta[d]imidazol-5-carboxylate]", "values": [{"measurement": "IC50", "setting": "Table 4", "result": "< 0.03", "unit": "µM"}]}
{"molecule": "CCOC(=O)C1Cc2nc(-c3ccc4ccccc4c3)n(-c3ccnc(N[C@H]4CCN(C(=O)C5CC5)C4)n3)c2C1", "note": "(stereo partly drawn) [Compound 16c, ethyl 1-(2-(((S)-1-(cyclopropanecarbonyl)pyrrolidine-3-yl)amino)pyrimidin-4-yl)-2-(naphthalen-2-yl)-1,4,5,6-tetracyclopenta[d]imidazol-5-carboxylate]", "values": [{"measurement": "IC50", "setting": "Table 3", "result": "< 0.03", "unit": "µM"}]}
{"molecule": "NC(=O)C1Cc2nc(-c3ccc4ccccc4c3)n(-c3ccnc(N[C@@H]4CCCN(C(=O)C5CC5)C4)n3)c2C1", "note": "(stereo partly drawn) [Compound 23c, 1-(2-(((R)-1-(cyclopropanecarbonyl)piperidin-3-yl)amino)pyrimidin-4-yl)-2-(naphthalen-2-yl)-1,4,5,6-tetracyclopenta[d]imidazol-5-carboxamide]", "values": [{"measurement": "IC50", "setting": "Table 3", "result": "< 0.03", "unit": "µM"}]}
{"molecule": "CNC(=O)C1Cc2nc(-c3ccc(F)c(C(F)(F)F)c3)n(-c3ccnc(N[C@@H]4CCN(C(=O)C5CC5)C4)n3)c2C1", "note": "(stereo partly drawn) [Compound 25a, 1-(2-(((R)-1-(cyclopropanecarbonyl)pyrrolidine-3-yl)amino)pyrimidin-4-yl)-2-(4-fluoro-3-(trifluoromethyl)phenyl)-N-methyl-1,4,5,6-tetracyclopenta[d]imidazol-5-carboxamide]", "values": [{"measurement": "IC50", "setting": "Table 1", "result": "> 1", "unit": "µM"}]}
{"molecule": "NC(=O)C1Cc2nc(-c3ccc4c(c3)OCO4)n(-c3ccnc(N[C@H]4CCN(C(=O)C5CC5)C4)n3)c2C1", "note": "(stereo partly drawn) [Compound 20d, 2-(benzo[d][1,3]dioxol-5-yl)-1-(2-(((S)-1-(cyclopropanecarbonyl)pyrrolidine-3-yl)amino)pyrimidin-4-yl)-1,4,5,6-tetracyclopenta[d]imidazol-5-carboxamide]", "values": [{"measurement": "IC50", "setting": "Table 4", "result": "> 1", "unit": "µM"}]}
{"molecule": "CCOC(=O)C1Cc2nc(-c3ccc4c(c3)CCO4)n(-c3ccnc(N[C@@H]4CCCN(C(=O)C5CC5)C4)n3)c2C1", "note": "(stereo partly drawn) [Compound 19e, ethyl 1-(2-(((R)-1-(cyclopropanecarbonyl)piperidin-3-yl)amino)pyrimidin-4-yl)-2-(2,3-dihydrobenzofuran-5-yl)-1,4,5,6-tetracyclopenta[d]imidazol-5-carboxylate]", "values": [{"measurement": "IC50", "setting": "Table 5", "result": "< 0.03", "unit": "µM"}]}
{"molecule": "CCOC(=O)C1Cc2nc(-c3ccc4ccccc4c3)n(-c3ccnc(N[C@H]4CCCN(C(=O)C5CC5)C4)n3)c2C1", "note": "(stereo partly drawn) [Compound 18c, ethyl 1-(2-(((S)-1-(cyclopropanecarbonyl)piperidin-3-yl)amino)pyrimidin-4-yl)-2-(naphthalen-2-yl)-1,4,5,6-tetracyclopenta[d]imidazol-5-carboxylate]", "values": [{"measurement": "IC50", "setting": "Table 3", "result": "< 0.03", "unit": "µM"}]}
{"molecule": "NC(=O)C1Cc2nc(-c3ccc4c(c3)CCO4)n(-c3ccnc(N[C@@H]4CCCN(C(=O)C5CC5)C4)n3)c2C1", "note": "(stereo partly drawn) [Compound 23e, 1-(2-(((R)-1-(cyclopropanecarbonyl)piperidin-3-yl)amino)pyrimidin-4-yl)-2-(2,3-dihydrobenzofuran-5-yl)-1,4,5,6-tetracyclopenta[d]imidazol-5-carboxamide]", "values": [{"measurement": "IC50", "setting": "Table 5", "result": "< 0.03", "unit": "µM"}]}
{"molecule": "CNC(=O)C1Cc2nc(-c3ccc4c(c3)CCO4)n(-c3ccnc(N[C@H]4CCCN(C(=O)C5CC5)C4)n3)c2C1", "note": "(stereo partly drawn) [Compound 26e, 1-(2-(((S)-1-(cyclopropanecarbonyl)piperidin-3-yl)amino)pyrimidin-4-yl)-2-(2,3-dihydrobenzofuran-5-yl)-N-methyl-1,4,5,6-tetracyclopenta[d]imidazol-5-carboxamide]", "values": [{"measurement": "IC50", "setting": "Table 5", "result": "> 1", "unit": "µM"}]}
